Experimental data reported in US8088818B2, “Catechol-based derivatives for treating or preventing diabetics” (National Taiwan University, priority 2006, dated 2012).

Experiments:
Type 1 diabetic rats = test: Blood sugar lowering in streptozotocin-induced type 1 diabetic rats after oral administration; assay type: in vivo, rat; conditions: for % decrease in plasma glucose: type 1 diabetic rats, 90 min
Method: (b) Streptozocin-induced type 1 diabetic rats: the male Wistar rats of 8 weeks age undergo a starvation for 72 hours, followed by anaesthetizing the rats by injecting with 30 mg/kg pentobarbital into the abdominal cavity. After the rats fall asleep, 60 mg/kg streptozotocin (STZ) is administrated by an intravenous injection. After a week, phlebotomize and obtain a value of blood sugar by a glucose kit, wherein the glucose kit is further analyzed by Biosystem S.A., Barcelona Spain, BST330. While the value of the blood sugar is greater than 400 mg/dL and the typical three symptoms, eating more, drink more, micturition occur, it is deemed as Type 1 Diabetic rats.
(d) The administration: Dissolve the medicine equivalently in deionized water, and then administrate the mentioned solution into the normal and diabetic rats by an orally perfusion. Keep with the desired concentration of the perfusion amount by taking suitable amount of the medicine solution according to the weight of the different animal.
The rats to be experimented should undergo a starvation for 8-12 hours overnight. Next day, the rats are anesthetized with 30 mg/kg pentobarbital by injecting into the abdominal cavity. After the rats fall asleep, fix the rats on the board with the rubber band. Open the groin, find the veins, bleed 0.1 ml blood from an empty stomach, and then feed the medicine into the body of the rats by taking orally. After 90 minutes, bleed and perform a centrifugation (13,000 rpm, 5 minutes) to separate the serum and the plasma. Take the 10 μl supernatant of the serum and add 1 ml reagent of the glucose kit thereinto by gently mixing. React for 5 minutes at 37 °C, followed by detecting the value of the blood sugar by means of BST330 based on the different absorption level. […] The value of the blood sugar (mg/dL) is calculated by comparing the level of redness with contrasting the standard curve.
(The value of blood sugar at postadministration)−(The value of blood sugar at preadministration)/(The value of blood sugar at preadministration)×100%
The results of the experiments are presented in the average value±the standard error (mean±SE), and the variations therebetween are evaluated according to the Student's t-test, while the variations thereamong are evaluated according to one-way ANOVA and Bonferroni's t-test, wherein P<0.05 is deemed to have apparent differences.

coronary artery = test: Flow rate of the coronary artery in the isolated perfused rat heart (Langendorff); conditions: for coronary flow: isolated Wistar rat heart
Method: Each of the male Wistar rats weighs about 200-250 grams, and is anesthetized with 25 mg/kg pentobarbital and 16 mg/kg heparin by injecting into the abdominal cavity. After falling asleep, separate the cervical vertebra and immediately take the heart out hanging on the constant pouring pressure circulation instrument (Langendorff, AD Instruments Pty Ltd, ML870B2) and fill a 37[…] pouring solution of 95% of oxygen and 5% of carbon dioxide with the artery (119.7 mM NaCl, 23.8 mM NaHCO3, 5.6 mM glucose, 1.2 mM CaCl2, 1.1 mM MgCl2, 0.3 mM NaH2PO4, and 5.0 mM KCl), which washes the heart and clean out the blood water by pouring in a reverse direction. The rate of the reverse pouring is 10 ml/min, followed by maintaining the pouring pressure of the coronary artery at 80 mmHg. After balancing for thirty minutes, measure the rate of the pouring solution flowing in the heart, and observe the change of the rate the pouring solution flowing in the heart while the testing drug is added.

[1] = test system: rats with coronary artery ligature-reperfusion; test: Coronary artery ligature / reperfusion model of the living rat (area at risk, infarct size); assay type: in vivo; conditions: ischaemia 45 minutes, reperfusion two hours
Method: The grown-up male rats having the weight of 250˜300 grams (Sprague-Dawley strain, purchased BioLASCO Taiwan Co., Ltd.) are anesthetized with 1.25 g/kg urethane by the abdominal cavity injection. After anaesthetization, cut the trachea, connect with the artificial respirator (Harvard Rodent Ventilator Model 983), give 15 ml/kg of the tidal volume, and control the respiratory rate at […], followed by cutting off both sides of the vagus immediately. After the intubation of the right arterial carotis, it is connected to the pressure converter (Statham P23XL transducer) so as to monitor the changes of systemic blood pressure. In addition, the rats' four limbs are connected to the silver electrode, so as to record the changes of the electrocardiogram (ECG). Blood pressures, heartbeats and electrocardiogram curves are recorded and analyzed by the software (MacLab data acquisition system, AD Instrument Pty, Castle Hill, NSW, Australia).
After all previous preparations have been done, open the ribcage by the thoracotomy and cut off the skin layers and muscles to find the rib. Burn the fourth and fifth rib close to 2 mm of the sternum in an electrical knife and stabilize the injury with the retractor followed by rending the pericardial membrane, separating the left atrial appendage gently by the cottons, and clasping the anterior interventricular branch of the left coronary artery immediately between the left atrial appendage and the pulmonary artery by a needle forceps having a silk yarn with a hook. Put loops on both ends of silk yarn to seal the wound by unclamping the retractor. Balance in 15 minutes, and if there exists cardiac arrhythmia or the systolic pressure is lower than 80 mmHg, it will be eliminated.
After the balance, the acute cardiac muscle ischaemia is caused by pushing the loop passed by a silk yarn with a hemostat downwards to be stabilized. Then, unclamp the hemostat and uplift the loop to perform a reperfusion of the coronary artery being ligated by the silk yarn. […] If the same surgical procedure is performed, the rat without administrating the drug and performing an ischaemia and an ischaemia/reperfusion is regarded as the sham group. The rundown of the ischaemia and the ischaemia/reperfusion of the present test is as follows.
Perform an ischaemia for 45 minutes and perform an ischaemia/reperfusion for 2 hours. Administrate by injecting the drug into the abdominal cavity after perform the ischaemia for 15 minutes.
Inject the approximately 2 ml, 1% methylene blue into the ischaemic area via a jugular vein, where the non-ischemic area is dyed as purple and the ischemic area or area at risk is retained as red. Subsequently, the heart is immediately took out and washed by the physiological salt solution to remove the connective tissue of the atrium and the surplus water. Cut the undyed ischemic area and weight the total ventricle to calculate the ischemic area of the ventricle. Area at risk (% of total ventricular)=(Weight of risk area)/(Total ventricular weight)×100%.
Cut the ischemic area into a slice with the thickness of approximately 1 mm. Immerse the slice into a TTC (2,3,5-triphenyltetrazolium chloride, in saline) solution, and heat the resultant solution at the 37[…] incubator for 30 minutes, followed by replacing the solvent with 10% formaldehyde solution to preserve the resulting solution for two weeks. The living cells are able to produce the dehydrogenase, which could reduce TTC to a crimson formazan precipitate, whereas the dead cells are unable to produce dehydrogenase, which decolor the formazan as a gray precipitate. Cut and weight the gray infraction area and calculate the ratio. Infract Size (% of risk area)=(Weight of infraction)/(Weight of risk area)×100%.

O=C(/C=C/c1ccc(O)c(O)c1)NCCc1ccccc1 [370G (45)]
% decrease in plasma glucose (Type 1 diabetic rats; 0.1 mg/kg oral): 11.8 ± 5.5 % | % decrease in plasma glucose (Type 1 diabetic rats; 0.5 mg/kg oral): 13.8 ± 4.3 % | % decrease in plasma glucose (Type 1 diabetic rats; 1.0 mg/kg oral): 11.6 ± 1.7 % | effect for reducing the blood sugar, compared among rat models (Type 1 diabetic rats; type I diabetic rat): weakest effect | effect on coronary flow rate (in words) (coronary artery; Wistar rats, Tables 15 and 16): capable of increasing the coronary flow rate | coronary flow (coronary artery; conc. 0 (baseline)): 11.8 ± 1.0 mL/min | coronary flow (coronary artery; conc. 0.1 (unit printed .[…]M)): 12.4 ± 1.1 mL/min | coronary flow (coronary artery; conc. 0.3 (unit printed .[…]M)): 13.2 ± 1.4 mL/min | coronary flow (coronary artery; conc. 1 (unit printed .[…]M)): 15.6 ± 1.2 mL/min | coronary flow (coronary artery; conc. 3 (unit printed .[…]M)): 17.4 ± 1.3 mL/min | coronary flow (coronary artery; conc. 10 (unit printed .[…]M)): 19.5 ± 0.7 mL/min | ratio of the areas at risk in the overall area ([1]; 15 mg/kg): 41.1±1.3% | ratio of the areas at risk in the overall area ([1]; 10^−6 mg/kg): 39.1±1.9% | infract size (% of risk area) ([1]; 10^−5 mole/kg (approximately 2.8 mg/kg)): 68.8±2.9% | infract size (% of risk area) ([1]; 10^−6 mole/kg (approximately 0.28 mg/kg)): 70.9±2.8 | infract size (% of risk area) [1]: 62.8±1.8% | ratio of the areas at risk in the overall area [1]: 36.7±2.3%
